One may read the IC50 as the concentration that gives 50% inhibition. A low value points to inhibition by little substance.

Counter-ions that a name gives are not always drawn.

For this assay, the system named is microvessel formation in rat aortic rings. Put plainly: rat aortic ring model of angiogenesis (inhibition of microvessel formation). The class given is cell-based. The settings on record: microvessel area after eight days in culture vs vehicle-treated control rings. The method, then:
Angiogenesis inhibitory activity was measured in vitro using the rat aortic ring model of angiogenesis as described by Nicosia, R. F. and Ottinetti in “Laboratory Investigation”, vol. 63, p. 115, 1990. The ability of compounds to inhibit microvessel formation was compared to vehicle-treated control rings. Quantitation (microvessel area) following eight days in culture was performed using an image analysis system, consisting of a light microscope, a CCD camera and an automated, custom-designed image analysis program as described by Nissanov, J., Tuman, R. W., Gruver, L. M., and Fortunato, J. M. in “Laboratory Investigation”, vol 73 (#5), p. 734, 1995. Compounds were tested at several concentrations for determination of inhibitory potency (IC50's).

In turn, `Cc1nsc(-c2ccc(N(C)CCCCSc3cccc(C(F)(F)F)c3)nn2)n1` [Compound 74] showed an IC50 of 1 nM.
Still for that read-out and setting: under `Cc1nsc(-c2ccc(N(C)CCCCOc3ccccc3C(F)(F)F)nn2)n1` [Compound 49] stands 0.312 nM.
Compound `COc1cccc(OCCCCNc2ccc(-c3nc(C)ns3)nn2)c1` [Compound 30] came in with an IC50 of 6.31 nM.
Same read-out and setting: under `Cc1nsc(-c2ccc(N(C)CCCCOc3ccccc3F)nn2)n1` [Compound 41] stands 2.56 nM; under `Cc1nsc(-c2ccc(N(C)CCCCOc3cc(C(F)(F)F)ccc3F)nn2)n1` [Compound 47], 12.5 nM; under `Cc1nsc(-c2ccc(N(C)CCCCOc3ccc(F)cc3)nn2)n1` [Compound 43], 2.78 nM.
On the same count and under the same terms, under `Cc1nsc(-c2ccc(NCCCCOc3ccc(F)cc3F)nn2)n1` [Compound 22] stands 72.6 nM.
The same measure, in the same setting: next, `Cc1nsc(-c2ccc(N(C)CCCCOc3cccc(F)c3)nn2)n1` [Compound 42]: 42.2 nM; `Cc1nsc(-c2ccc(N(C)CCNc3cccc(C(F)(F)F)c3)nn2)n1` [Compound 112]: 13.3 nM.
The compound `Cc1nsc(-c2ccc(NCCCCOc3ccc(Cl)c(Cl)c3)nn2)n1` [Compound 17] displayed an IC50 of 12.8 nM.
Same read-out and setting: under `Cc1nsc(-c2ccc(NCCCCCCNc3cccc(C(F)(F)F)c3)nn2)n1` [Compound 8] stands 8.53 nM.
In the case of `Cc1nsc(-c2ccc(N(C)CCCCOc3ccc(C(F)(F)F)cc3)nn2)n1` [Compound 55, N-methyl-6-(3-methyl-1,2,4-thiadiazol-5-yl)-N-[4-[4-(tri-fluoromethyl)phenoxy]butyl]-3-pyridazinamine monohydrochloride], where the note is “192 h”, the IC50 stood at 3.62 nM.
`Cc1nsc(-c2ccc(N(C)CCCCCc3cccc(C(F)(F)F)c3)nn2)n1` [Compound 78] had an IC50 of 0.28 nM.
On the same count and under the same terms, next, `Cc1nsc(-c2ccc(NCCCCSc3ccc(F)cc3)nn2)n1` [Compound 71]: less than 0.1 nM; `Cc1nsc(-c2ccc(N(C)CCCCOc3ccccc3Cl)nn2)n1` [Compound 37]: 1.32 nM.
`CN(C)c1nsc(-c2ccc(NCCCCOc3cccc(C(F)(F)F)c3)nn2)n1` [Compound 67] had an IC50 of 32.4 nM.
`Cc1nsc(-c2ccc(N(C)CCCCC(=O)c3cccc(C(F)(F)F)c3)nn2)n1` [Compound 70] returned an IC50 of 12.2 nM.
In the case of `Cc1nsc(-c2ccc(N(C)CCCCOc3ccc(Cl)cc3)nn2)n1` [Compound 38], half-maximal inhibition (IC50) required 37.2 nM.
The same measure, in the same setting: next, `Cc1nsc(-c2ccc(NCCCCNc3cccc(C(F)(F)F)c3)nn2)n1` [Compound 108]: 37.9 nM; `Cc1nsc(-c2ccc(N(C)CCCCOc3ccc(F)c(F)c3)nn2)n1` [Compound 45]: 2 nM.
On to `Cc1nsc(-c2ccc(N(C)CCCCOc3cccc(C(F)(F)F)c3)nn2)n1` [Compound 52, N-methyl-6-(3-methyl-1,2,4-thiadiazol-5-yl)-N-[4-[3-(trifluoromethyl)phenoxy]butyl]-3-pyridazinamine], for which, under “192 h”, the IC50 was determined as 5.56 nM.
Consider `Cc1nsc(-c2ccc(NCCCCOc3cccc(F)c3)nn2)n1` [Compound 20], for which the IC50 is 8.15 nM.
In turn, `Cc1nsc(-c2ccc(NCCCCOc3ccc(Br)cc3)nn2)n1` [Compound 14] returned an IC50 of 31.2 nM.
The compound `CN(C)c1nsc(-c2ccc(N(C)CCOc3cccc(C(F)(F)F)c3)nn2)n1` [Compound 100] came in with an IC50 of 7.01 nM.
For `Cc1nsc(-c2ccc(N(C)CCCCOc3ccc(Br)cc3[N+](=O)[O-])nn2)n1` [Compound 56], the IC50 came out at 80.7 nM.
On the same count and under the same terms, next, `COc1ccc(OCCCCN(C)c2ccc(-c3nc(C)ns3)nn2)c(Cl)c1` [Compound 40]: 11.5 nM.
`Cc1nsc(-c2ccc(N(C)CCCCOc3ccc(Cl)c(Cl)c3)nn2)n1` [Compound 39]: the IC50 worked out at 17.1 nM.
Same read-out and setting: next, `Cc1nsc(-c2ccc(NCCCCNc3ccccc3)nn2)n1` [Compound 3]: 45.7 nM; `Cc1nsc(-c2ccc(NCCCCOc3ccccc3Cl)nn2)n1` [Compound 15]: 1.34 nM.
Same read-out and setting: next, `Cc1nsc(-c2ccc(N(C)CCCCOc3cccc(C(F)(F)F)c3F)nn2)n1` [Compound 46]: 1.46 nM; `Cc1nsc(-c2ccc(NCCCCOc3ccc(Cl)cc3)nn2)n1` [Compound 16]: 15.8 nM.
On the same count and under the same terms, under `Cc1cccc(OCCCCN(C)c2ccc(-c3nc(C)ns3)nn2)c1` [Compound 61] stands 35.1 nM; under `Cc1nsc(-c2ccc(NCCOc3cccc(C(F)(F)F)c3)nn2)n1` [Compound 24], 1.33 nM; under `Cc1nsc(-c2ccc(N(C)CCCCSc3ccc(F)cc3)nn2)n1` [Compound 72], 0.388 nM.
`Cc1nsc(-c2ccc(N(C)CCCCOc3ccc([N+](=O)[O-])c(C(F)(F)F)c3)nn2)n1` [Compound 54] gave a half-inhibitory concentration (IC50) of 13.7 nM.
Same read-out and setting: under `Cc1nsc(-c2ccc(NCCCCCc3cccc(C(F)(F)F)c3)nn2)n1` [Compound 77] stands 5.81 nM; under `Cc1nsc(-c2ccc(NCCCCCNc3ccccc3)nn2)n1` [Compound 4], 21.2 nM.
Same read-out and setting: next, `CCN(CCCCOc1cccc(C(F)(F)F)c1)c1ccc(-c2nc(C)ns2)nn1` [Compound 63]: 9.2 nM; `Cc1nsc(-c2ccc(N(C)CCCCOc3cccc([N+](=O)[O-])c3)nn2)n1` [Compound 57]: 51.1 nM.
Turning to `Cc1nsc(-c2ccc(N(C)CCCCCc3ccc(F)cc3)nn2)n1` [Compound 76], the IC50 turned out to be 1.15 nM.
Same read-out and setting: next, `FC(F)(F)c1cccc(OCCCCNc2ccc(-c3ncns3)nn2)c1` [Compound 11]: 90.8 nM; `Cc1nsc(-c2ccc(N(C)CCCOc3cccc(C(F)(F)F)c3)nn2)n1` [Compound 51]: 9.38 nM; `Cc1nsc(-c2ccc(N(C)CCN(C)c3ccccc3)nn2)n1` [Compound 10]: 15.6 nM.
Still for that read-out and setting: under `Cc1nsc(-c2ccc(NCCN(C)c3cccc(C(F)(F)F)c3)nn2)n1` [Compound 105] stands 1.49 nM.
Same read-out and setting: next, `CN(CCCCOc1cccc(C(F)(F)F)c1)c1ccc(-c2nc(CO)ns2)nn1` [Compound 102]: 2.08 nM; `Cc1nsc(-c2ccc(N(C)CCCNc3cccc(C(F)(F)F)c3)nn2)n1` [Compound 104]: 20.3 nM.
`Cc1nsc(-c2ccc(NCCCNc3cccc(C(F)(F)F)c3)nn2)n1` [Compound 7]: half-maximal inhibition (IC50) was put at 45.4 nM.
The same measure, in the same setting: under `Cc1nsc(-c2ccc(N(C)CCOc3cccc(C(F)(F)F)c3)nn2)n1` [Compound 50] stands 0.83 nM; under `Cc1nsc(-c2ccc(NCCCCOc3cccc(C(F)(F)F)c3)nn2)n1` [Compound 26], 3.97 nM; under `Cc1nsc(-c2ccc(NCCCOc3cccc(C(F)(F)F)c3)nn2)n1` [Compound 25], 40.4 nM.
For the compound `Cc1ccc(C(C)C)c(OCCCCN(C)c2ccc(-c3nc(C)ns3)nn2)c1` [Compound 62], the IC50 stood at 5.53 nM.
Same read-out and setting: under `Cc1nsc(-c2ccc(NCCCCOc3ccc(F)cc3)nn2)n1` [Compound 21] stands 48.4 nM.
Compound `Cc1nsc(-c2ccc(SCCCCOc3cccc(C(F)(F)F)c3)nn2)n1` [Compound 94, 3-(3-methyl-1,2,4-thiadiazol-5-yl)-6-[[4-[3-(trifluoromethyl)phenoxy]butyl]thio]pyridazine] returned an IC50 (192 h) of 4.71 nM.
Consider `Cc1nsc(-c2ccc(NCCCCSc3cccc(C(F)(F)F)c3)nn2)n1` [Compound 73], for which 2.86 nM corresponded to half-maximal inhibition (IC50).
On the same count and under the same terms, next, `CN(C)c1nsc(-c2ccc(NCCCCCCNc3cccc(C(F)(F)F)c3)nn2)n1` [Compound 97]: 1.6 nM; `Cc1nsc(-c2ccc(N(C)CCCCOc3ccccc3)nn2)n1` [Compound 35]: 29.4 nM.
`FC(F)(F)c1cccc(OCCNc2ccc(-c3ncns3)nn2)c1` [Compound 98] returned an IC50 of 3.07 nM.
For `Cc1nsc(-c2ccc(N(C)CCCCN(C)c3cccc(C(F)(F)F)c3)nn2)n1` [Compound 111], the IC50 was 1.87 nM.
The same measure, in the same setting: under `Cc1ccc(C(C)C)c(OCCCCNc2ccc(-c3nc(C)ns3)nn2)c1` [Compound 29] stands 24.8 nM.
The compound `Cc1nsc(-c2ccc(NCCCCCCOc3cccc(C(F)(F)F)c3)nn2)n1` [Compound 28] registered an IC50 of 1.76 nM.
Same read-out and setting: under `Cc1nsc(-c2ccc(NCCCCCOc3cccc(C(F)(F)F)c3)nn2)n1` [Compound 27] stands 0.622 nM; under `Cc1nsc(-c2ccc(N(C)CCCCOc3ccc(F)cc3F)nn2)n1` [Compound 44], 15.2 nM; under `Cc1nsc(-c2ccc(NCCCCCCNc3ccccc3)nn2)n1` [Compound 5], 16.4 nM.
Same read-out and setting: under `Cc1nsc(-c2ccc(N(C)CCN(Cc3ccccc3)c3cccc(C(F)(F)F)c3)nn2)n1` [Compound 110] stands 6.98 nM; under `Cc1nsc(-c2ccc(N(C)CCCCOc3cc(C(F)(F)F)cc(C(F)(F)F)c3)nn2)n1` [Compound 53], 7.33 nM.
The same measure, in the same setting: next, `Cc1nsc(-c2ccc(NCCNc3cccc(C(F)(F)F)c3)nn2)n1` [Compound 6]: 0.428 nM; `Cc1nsc(-c2ccc(N(C)CCCCOc3cc(F)cc(C(F)(F)F)c3)nn2)n1` [Compound 48]: 1.85 nM.
`Cc1nsc(-c2ccc(N(C)CCCCOc3ccc(Br)cc3)nn2)n1` [Compound 36]: the IC50 amounted to 5.3 nM.
As to `Cc1nsc(-c2ccc(N(C)CCNc3ccccc3)nn2)n1` [Compound 9], half-maximal inhibition (IC50) was put at 17.9 nM.

The values are drawn from patent publication US6602873B2, “Angiogenesis inhibiting thiadiazolyl pyridazine derivatives” (Janssen Pharamaceutica, N.V., priority 1997, dated 2003).
